The values below come from US9783500B2, “2-aminoquinoline-based compounds for potent and selective neuronal nitric oxide synthase inhibition” (priority 2014, dated 2017).

Where a name gives a salt, the structure may show the parent alone.

The target in the assay is rat nNOS (Rattus norvegicus (Rat), UniProt P29476). As to conditions: Table 1; for Selectivity n/i / Selectivity n/e: ratio of Ki values; for Selectivity n/i: murine iNOS/rat nNOS; for Selectivity n/e: bovine eNOS/rat nNOS.

On to `Cl.Cl.Nc1ccc2ccc(CCNCCc3ccc(F)cc3)cc2n1` [14 (Ex. 16), 7-[(4-Fluorophenethylamino)ethyl]quinolin-2-amine Dihydrochloride], for which the Selectivity n/i is 280.
On to `Cl.Cl.Nc1ccc2ccc(CCNCc3cccc(F)c3)cc2n1` [6 (Ex. 12), 7-[2-(3-Fluorobenzylamino)ethyl]quinolin-2-amine Dihydrochloride], for which the Selectivity n/e came out at 30 and the Selectivity n/i is given as 97.
One may read the Ki as the equilibrium dissociation constant of an inhibitor or competing ligand from its target. As to `Nc1ccc2cc(CCNCCCc3cccc(F)c3)ccc2n1` [13 (Ex. 30), 6-{2-[3-(3-Fluorophenyl(propylamino)ethyl]}quinolin-2-amine Dihydrochloride], the Ki (read-out: Ki nNOS, purified rat nNOS, Ki calculated from IC50) was 4.37 µM.
For `Nc1ccc2ccc(CNCCCc3cccc(F)c3)cc2n1` [9 (Ex. 9), 7-{2-[3-(3-Fluorophenyl(propylamino)methyl]}quinolin-2-amine Dihydrochloride], the Selectivity n/e turned out to be 62 and the Selectivity n/i turned out to be 538.
Turning to `Cl.Cl.Nc1ccc2ccc(CNCCc3cccc(F)c3)cc2n1` [5 (Ex. 8), 7-[(3-Fluorophenethylamino)methyl]quinolin-2-amine Dihydrochloride], the Selectivity n/e is reported as 6.2.
Regarding `Cl.Cl.Nc1ccc2ccc(CCNCCc3ccc(Cl)cc3)cc2n1` [16 (Ex. 18), 7-[(4-Chlorophenethylamino)ethyl]quinolin-2-amine Dihydrochloride], the Selectivity n/e stood at 47 and the Selectivity n/i was determined as 91.
